Reference: US11001820B2, “Delivery of therapeutic agents by a collagen binding protein” (THE BOARD OF TRUSTEES OF THE UNIVERSITY OF ARKANSAS, priority 2011, dated 2021)
Values belong to the molecule of their own block, whether it stands above or below them.

Assays:
androgenic alopecia = settings: long-term (10 years) therapy; cited from earlier work
[1] = Circular dichroism thermal denaturation of collagenous peptides; type: physicochemical; settings: triple helix thermostability by [θ]225, 0.3° C./min, 1 mg/ml in water
Method: The triple helical conformation and the stability of the collagenous peptides were verified using CD spectroscopy (See FIGS. 3 and 4). CD spectra were recorded with a J-820 CD spectropolarimeter (JASCO Co., Hachioji, Japan) equipped with a Peltier thermo controller, using a 0.5-mm quartz cuvette and connected to a data station for signal averaging. All peptide samples were dissolved in water (1 mg/ml), and stored at 4° C. for 24 h. The spectra are reported in terms of ellipticity units per mole of peptide residues [θ]mrw. Thermostability of the triple helix was monitored by the [θ]225 values of each peptide with increasing temperature at the rate of 0.3° C./min.

C57/BL6J mice = assay: Depilation alopecia (waxing); type: in vivo
Source text: The agonist PTH-CBD appears to increase hair growth by increasing the number of anagen phase hair follicles. As such, there is no reason to believe that hair growth effects should be limited to the chemotherapy model. We therefore tested both PTH-CBD and antagonist compound, PTH(7-33)-CBD, after removing hair from C57/BL6J mice by waxing (FIG. 18). […] Thus, it appears that agonist therapy is acting to promote more rapid regrowth of hair by promoting more rapid transition to the anagen phase, while the antagonist inhibited hair regrowth by blocking this transition.

engrafted C3H/Hej mouse = assay: Alopecia areata model; type: in vivo
Source text: Alopecia Areata is a disease of patchy hair loss due to autoimmune destruction of the hair follicles. We tested the efficacy of PTH-CBD in promoting regrowth of hair in an animal model of alopecia areata, the engrafted C3H/Hej mouse. In this model, hair loss develops variably over the first 2 months of life. Shown in FIG. 19 is the results of a single dose of PTH-CBD (320 mcg/kg subcutaneous) administered into the engrafted site, the center of the back, where there was maximal hair loss. Compared to vehicle control animals, which continued to lose hair at this site, animals receiving PTH-CBD began to show regrowth of hair within the next 1-4 days.

C57BL/6J mice = assay: Chemotherapy-induced alopecia (cyclophosphamide) in depilated mice; type: in vivo
Method: We compared efficacy of CBD linked PTH agonists and antagonists in chemotherapy-induced alopecia, utilizing an experimental design published by Peters, et al., for non-CBD linked PTH compounds. Peters, et al. (2001) J Invest Dermatol 117:173-178. C57BL/6J mice (Jackson Laboratories, Bar Harbor, Me.) were depilated to synchronize the hair follicles, and cyclophosphamide (CYP, 150 mg/kg) was administered on day 9 to maximize the chemotherapy-induced damage. The agonist (PTH-CBD) and the antagonist (PTH(7-33)-CBD) were administered 2 days prior to chemotherapy, and given the long-term retention of the compounds in the skin, we administered only a single dose to cover the timing of the multiple injections of PTH agonist and antagonist in the study by Peters, et. al. The administered dose of CBD-linked compounds (320 mcg/kg) is well tolerated in mice. Ponnapakkam et al. (2011) Calcif 88:511-520. […].
We followed these studies by comparing the effects of different doses of PTH-CBD in chemotherapy-induced alopecia. In these studies, we applied the injections more distally on the back and applied a gray-scale analysis to quantify the amount of hair growth. Injecting more distally in the back allows us to compare regrowth of hair after PTH-CBD treatment with less interference from the normal hair regrowth, which normally proceeds from head to tail in mice.

[2] = Tissue distribution of 35S-labelled PTH-CBD by whole-body autoradiography; type: in vivo, mice; settings: subcutaneous injection, 1 hour and 12 hours
Method: Tissue distribution was assessed by administering ^35S-labelled PTH-CBD via subcutaneous injection, followed by whole mount frozen and whole-body autoradiography. PTH-CBD with a phosphorylation site between PTH(1-33) and the CBD was purified, activated and labeled with […] as described previously. Tamai et al. (2003) Infect Immun. 71:5371-5375. Approximately 10.8 mcg of ^35S-PTH-CBD (122 kcm/mcg) was injected subcutaneously in 7 week-old mice (32-35 g). Mice were sacrificed at 1 hour or 12 hours post-injection, and then frozen in dry ice-acetone. Frozen sections ([…]) were prepared with an autocryotome, dried at −20° C., and exposed to an image plate for 4 weeks. There appeared to be an initial distribution of ^35S-PTH-CBD to a broad area of skin around the site of injection, followed by a rapid redistribution to the skin of the entire animal, as well as to several other tissues (i.e. bone, intestine, bladder) (FIG. 11).

mice = assay: Chemotherapy-induced alopecia without depilation; type: in vivo
Method: While the depilated model of chemotherapy-induced alopecia provides a uniform model for comparison of drug effects, the depilation process is known to cause hair follicle injury, and may alter the response of the animals to the PTH-CBD administration. We therefore tested the effects of PTH-CBD in another model of chemotherapy-induced alopecia, where the animals were given 3 courses of cyclophosphamide therapy (50 mg/kg/wk), similar to the usual manner in which cancer patients might be treated. In this model, it takes much longer (4-6 months) for alopecia to develop.
In a second study, we compared the effects of PTH-CBD when given prophylactically, at the time of the first cycle of chemotherapy, vs. therapeutically, after the hair loss had developed. […] This is evident both visually and quantitatively in FIG. 17, using the same grey scale analysis used in our dose-response study.

ovarectomized rat = assay: Ovarectomized aged rats, single dose, sacrifice 6 months after therapy; type: in vivo; settings: 6 months after single dose 320 mcg/kg
Method: In this experiment, rats had their ovaries surgically removed at age 3 months. At age 9 months, rats were injected with either a single dose of PTH-CBD (320 mcg/kg) or vehicle control. Animals were sacrificed 6 months after therapy (age 15 months). […] Serum calcium was measured and there were no differences between groups (Vehicle: 13.5+/−1.1 vs. PTH-CBD: 14.3+/−1.1 mg/dl, NS). […] These findings indicate that a single injection of PTH-CBD can provide long-term suppression of endogenous PTH production, preventing the normal rise seen with age in the ovarectomized rat model, and thus may serve as a therapy for hyperparathyroidism.

Molecule: CC(C)(C)NC(=O)[C@H]1CC[C@H]2[C@@H]3CC[C@H]4NC(=O)C=C[C@]4(C)[C@H]3CC[C@]12C [Finasteride]
- response rates (androgenic alopecia): around 50%

Molecule: (POG)4POA(POG)5
- Melting temperatures (Tm) [1]: 29 °C

Molecule: (POG)4POA(POG)5C-PROXYL
- Melting temperatures (Tm) [1]: 30 °C

Molecule: PROXYL-(POG)3POA(POG)6
- Melting temperatures (Tm) [1]: 28 °C

Molecule: PROXYL-(POG)4POA(POG)5
- Melting temperatures (Tm) [1]: 29 °C

Molecule: PROXYL-(POG)5POA(POG)4
- Melting temperatures (Tm) [1]: 28 °C

Molecule: PROXYL-(POG)6POA(POG)3
- Melting temperatures (Tm) [1]: 27 °C

Molecule: PTH-CBD: first 33 amino acids of PTH linked directly to the collagen binding domain (SEQ ID NO: 1)
- anagen eruption (C57/BL6J mice; after waxing, vehicle day 9): 7 days
- regrowth of hair (C57/BL6J mice; end of study (day 18)): more complete regrowth of hair
- duration of response (engrafted C3H/Hej mouse; single dose 320 mcg/kg): sustained during the 2 month course
- time to regrowth of hair (engrafted C3H/Hej mouse; single dose 320 mcg/kg subcutaneous into engrafted site): 1 to 4 days
- hair regrowth, gray-scale analysis (C57BL/6J mice; 100, 320, 1000 mcg/kg): dose-dependent effect
- hair follicle histology (C57BL/6J mice; H&E, day 36, 320 mcg/kg): deeper rooting and reduced melanocyte clumping
- excess hair length or growth (C57BL/6J mice; body, ears and tail): no evidence of excess hair length
- Counts of anagen VI hair follicles per high-powered field (C57BL/6J mice; day 36, 320 mcg/kg): higher number of hair follicles
- adverse effects (C57BL/6J mice; mouse, in vivo): no evidence of adverse effects
- serum calcium (C57BL/6J mice; mouse, in vivo): no effect
- hair growth (photodocumentation) (C57BL/6J mice; single dose 320 mcg/kg, 2 days prior to CYP, day 36): far more effective at stimulating hair growth than was the antagonist
- tissue distribution [2]: distribution and retention to skin
- effect on hair, prophylactic vs. therapeutic dosing (mice; grey scale analysis): effective in both instances
- hair loss (mice; single dose 320 mcg/kg subcutaneous prior to first of 3 cyclophosphamide courses): did not develop hair loss
- Human intact PTH levels (serum levels of PTH-CBD) (ovarectomized rat): undetectable
- Rat intact PTH levels (endogenous PTH production) (ovarectomized rat): suppressed the normal increase in endogenous PTH levels
- serum calcium (ovarectomized rat; NS vs vehicle): 14.3 ± 1.1 mg/dL

- Melting temperatures (Tm) [1]: 28 °C
Molecule: ^11PROXYL-(POG)3PCG(POG)4
